From the supplement of paper PMC10307832

Experiments:
Experiment in all cases: relative viability (nuclei count vs DMSO), 5 days (fraction); higher = more cells survive
[1] = test system: A549
Outline: (§1)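 After 5 days of treatment, lung cancer cells in 1536-well plates were fixed and stained in a single step (final 0.05% Triton X-100, 1% formaldehyde, 1 ug/ml Hoechst) and their nuclei counted on 4× images. Treatment had been applied by pin tool the day after seeding as one drug alone or as a fixed anchor-drug dose with five library-drug doses (not always all listed) in √10 steps. Relative viability is the nuclei count of treated wells divided by that of vehicle wells, and values are medians of duplicate plates.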

[2] = test system: NCI-H1299
Outline: as §1

[3] = test system: EBC-1
Outline: as §1

[4] = test system: Calu-6
Outline: as §1

[5] = test system: NCI-H1703
Outline: as §1

[6] = test system: NCI-H1623
Outline: as §1

Row | SMILES | relative viability ([1]; first compound 0.08 µM) | relative viability ([1]; first compound 0.8 µM) | relative viability ([1]; first compound 2.53 µM) | relative viability ([1]; first compound 8 µM) | relative viability ([2]; first compound 0.08 µM) | relative viability ([2]; first compound 0.8 µM) | relative viability ([2]; first compound 2.53 µM) | relative viability ([2]; first compound 8 µM) | relative viability ([3]; first compound 0.08 µM) | relative viability ([3]; first compound 0.8 µM) | relative viability ([3]; first compound 2.53 µM) | relative viability ([3]; first compound 8 µM) | relative viability ([4]; first compound 0.08 µM) | relative viability ([4]; first compound 0.8 µM) | relative viability ([4]; first compound 2.53 µM) | relative viability ([4]; first compound 8 µM) | relative viability ([5]; first compound 0.08 µM) | relative viability ([5]; first compound 0.8 µM) | relative viability ([5]; first compound 2.53 µM) | relative viability ([5]; first compound 8 µM) | relative viability ([6]; first compound 0.08 µM) | relative viability ([6]; first compound 0.8 µM) | relative viability ([6]; first compound 2.53 µM) | relative viability ([6]; first compound 8 µM)
1 | CCCCCCCCCCCC1=C(O)C(=O)C=C(O)C1=O [Embelin] + O=C(c1cc(Cc2n[nH]c(=O)c3ccccc23)ccc1F)N1CCN(C(=O)C2CC2)CC1 [Olaparib] (partner 8 µM) | 0.32 | 0.187 | 0.424 | 0.366 | 0.987 | 1.01 | 0.994 | 0.987 | 0.699 | 0.828 | 0.703 | 0.684 | 0.589 | 0.682 | 0.573 | 0.655 | 0.457 | 0.442 | 0.388 | 0.286 | – | – | – | –
2 | CCCCCCCCCCCC1=C(O)C(=O)C=C(O)C1=O [Embelin] + Cc1nc(Nc2ncc(C(=O)Nc3c(C)cccc3Cl)s2)cc(N2CCN(CCO)CC2)n1 [Dasatinib] (partner 0.075 µM) | – | – | – | – | – | – | – | – | – | – | – | – | – | – | – | – | – | – | – | – | 0.554 | 0.542 | 0.534 | 0.555
3 | CCCCCCCCCCCC1=C(O)C(=O)C=C(O)C1=O [Embelin] + CS(=O)(=O)N1CCN(Cc2cc3nc(-c4cccc5[nH]ncc45)nc(N4CCOCC4)c3s2)CC1 [Pictilisib] (partner 1 µM) | 0.554 | 0.596 | 0.53 | 0.527 | 0.873 | 0.832 | 0.784 | 0.887 | 0.446 | 0.362 | 0.446 | 0.336 | 0.949 | 1.12 | 1.1 | 0.891 | 0.232 | 0.315 | 0.241 | 0.232 | – | – | – | –
4 | CCCCCCCCCCCC1=C(O)C(=O)C=C(O)C1=O [Embelin] + C[C@@H](Oc1cc(-c2cnn(C3CCNCC3)c2)cnc1N)c1c(Cl)ccc(F)c1Cl [Crizotinib] (partner 1 µM) | 0.834 | 0.81 | 0.987 | 0.915 | 0.954 | 1.02 | 0.963 | 0.94 | 0.205 | 0.229 | 0.191 | 0.19 | 0.738 | 0.854 | 0.822 | 0.692 | 0.8 | 1.17 | 0.806 | 0.975 | – | – | – | –
5 | CCCCCCCCCCCC1=C(O)C(=O)C=C(O)C1=O [Embelin] + C[C@]1(O)C[C@@H](c2nc(-c3ccc4ccc(-c5ccccc5)nc4c3)c3c(N)nccn32)C1 [Linsitinib] (partner 1 µM) | 0.546 | 0.717 | 0.582 | 0.456 | 0.93 | 1.04 | 1.06 | 0.938 | 0.946 | 1.01 | 0.998 | 0.751 | 0.993 | 1.1 | 0.981 | 0.959 | 0.983 | – | 0.634 | 0.599 | – | – | – | –
6 | CCCCCCCCCCCC1=C(O)C(=O)C=C(O)C1=O [Embelin] + COc1cc2c(Oc3ccc(NC(=O)C4(C(=O)Nc5ccc(F)cc5)CC4)cc3F)ccnc2cc1OCCCN1CCOCC1 [Foretinib] (partner 0.25 µM) | 0.906 | 1.05 | 1.09 | 1.04 | 1.08 | 1.11 | 1.14 | 1.13 | 0.0948 | 0.124 | 0.102 | 0.103 | 0.86 | 1.01 | 0.883 | 1.03 | 0.413 | 0.404 | 0.392 | 0.314 | 0.889 | 0.872 | 0.876 | 0.853
7 | CCCCCCCCCCCC1=C(O)C(=O)C=C(O)C1=O [Embelin] + Nc1ncn([C@H]2C[C@H](O)[C@@H](CO)O2)c(=O)n1 [Decitabine] (partner 2 µM) | 0.303 | 0.252 | 0.326 | 0.277 | – | – | – | – | – | – | – | – | – | – | – | – | – | – | – | – | – | – | – | –
8 | CCCCCCCCCCCC1=C(O)C(=O)C=C(O)C1=O [Embelin] + CC(C)C[C@H](NC(=O)[C@H](Cc1ccccc1)NC(=O)c1cnccn1)B(O)O [Bortezomib] (partner 0.002 µM) | – | – | – | – | 1.06 | 1.05 | 1.07 | 1.03 | 0.485 | 0.678 | 0.565 | 0.545 | 1.1 | 1.03 | 0.966 | 1.15 | 0.26 | 0.549 | 0.361 | 0.236 | – | – | – | –
9 | CCCCCCCCCCCC1=C(O)C(=O)C=C(O)C1=O [Embelin] + Cc1cc(Nc2cc(N3CCN(C)CC3)nc(Sc3ccc(NC(=O)C4CC4)cc3)n2)n[nH]1 [Tozasertib] (partner 0.1 µM) | – | – | – | – | – | – | – | – | – | – | – | – | – | – | – | – | – | – | – | – | 0.44 | 0.412 | 0.45 | 0.423
10 | CCCCCCCCCCCC1=C(O)C(=O)C=C(O)C1=O [Embelin] + COc1cccc2cc(-c3nc([C@H]4CC[C@H](C(=O)O)CC4)n4ncnc(N)c34)[nH]c12 [OSI-027] (partner 0.5 µM) | – | – | – | – | – | – | – | – | – | – | – | – | – | – | – | – | – | – | – | – | 0.486 | 0.41 | 0.468 | 0.494
11 | CCCCCCCCCCCC1=C(O)C(=O)C=C(O)C1=O [Embelin] + CCNC(=O)c1noc(-c2cc(C(C)C)c(O)cc2O)c1-c1ccc(CN2CCOCC2)cc1 [Luminespib] (partner 0.01 µM) | – | – | – | – | – | – | – | – | – | – | – | – | – | – | – | – | – | – | – | – | 0.577 | 0.478 | 0.484 | 0.452
12 | CCCCCCCCCCCC1=C(O)C(=O)C=C(O)C1=O [Embelin] + CC1(C)CCC(c2ccc(Cl)cc2)=C(CN2CCN(c3ccc(C(=O)NS(=O)(=O)c4ccc(N[C@H](CCN5CCOCC5)CSc5ccccc5)c(S(=O)(=O)C(F)(F)F)c4)cc3)CC2)C1 [Navitoclax] (partner 0.5 µM) | 1.21 | 1.35 | 1.21 | 1.3 | 1.09 | 1.1 | 1.09 | 1.02 | 0.439 | 0.426 | 0.425 | 0.404 | 0.837 | 1.01 | 0.904 | 0.831 | 1.29 | 1.26 | 1.06 | 1.06 | – | – | – | –
13 | CCCCCCCCCCCC1=C(O)C(=O)C=C(O)C1=O [Embelin] + Cc1nc(NC(=O)N2CCC[C@H]2C(N)=O)sc1-c1ccnc(C(C)(C)C(F)(F)F)c1 [Alpelisib] (partner 2 µM) | 0.901 | 0.794 | 0.837 | 0.728 | 1.08 | 1.07 | 1.07 | 1.11 | 0.93 | 1 | 0.914 | 0.732 | 0.983 | 0.935 | 0.978 | 0.893 | 0.428 | 0.436 | 0.309 | 0.238 | – | – | – | –
14 | CCCCCCCCCCCC1=C(O)C(=O)C=C(O)C1=O [Embelin] + NC(=O)Nc1cc(-c2cccc(F)c2)sc1C(=O)N[C@H]1CCCNC1 [AZD7762] (partner 0.2 µM) | – | – | – | – | – | – | – | – | – | – | – | – | – | – | – | – | 0.132 | 0.166 | 0.131 | 0.143 | – | – | – | –
15 | CCCCCCCCCCCC1=C(O)C(=O)C=C(O)C1=O [Embelin] + CS(=O)(=O)CCNCc1ccc(-c2ccc3ncnc(Nc4ccc(OCc5cccc(F)c5)c(Cl)c4)c3c2)o1 [Lapatinib] (partner 2 µM) | 0.923 | 1.12 | 1.12 | 1.1 | 0.943 | 0.971 | 0.991 | 0.967 | 0.202 | 0.247 | 0.218 | 0.217 | 1.03 | 1.11 | 1.08 | 1.14 | 1.2 | 1.6 | 1.02 | 1.23 | – | – | – | –
16 | CCCCCCCCCCCC1=C(O)C(=O)C=C(O)C1=O [Embelin] + N=C(N)NC(=N)NCCc1ccccc1 [Phenformin] (partner 250 µM) | 0.204 | 0.167 | 0.185 | 0.0745 | – | – | – | – | – | – | – | – | – | – | – | – | – | – | – | – | 0.601 | 0.612 | 0.62 | 0.602
